Experimental findings from paper PMC6681416, “Novel Derivatives of Deoxycholic Acid Bearing Linear Aliphatic Diamine and Aminoalcohol Moieties and their Cyclic Analogs at the C3 Position: Synthesis and Evaluation of Their In Vitro Antitumor Potential” (Molecules, 2019) are described below.

The subject of assay [1] is HuTu-80 cells. Description: Mitochondrial membrane potential (JC-1). The format is cell-based, human. Conditions: 8 µM, control 18.7%. As for the experimental part:
Next, in order to identify whether the compound 9 induces apoptotic cell death by triggering mitochondrial dysfunction, we analyzed its effect on mitochondrial membrane potential (Δψm) in HuTu-80 cells by using fluorescent cationic JC-1 dye (Figure 2B).
The mitochondrial-specific cationic dye JC-1 (Molecular Probes, Invitrogen, Carlsbad, CA, USA) accumulating in the mitochondria by potential-dependent manner was used to detect the effect of compound 9 on ∆ψM. Briefly, HuTu-80 cells were seeded in 6-well plates at a density of 5 × 10^5 cells/well for 24 h. Then cells were treated by compound 9 at 8 µM for 6, 18 or 24 h, collected by trypsinization, washed with PBS, and JC-1 (5 µg/mL) was added to the cells. After 30 min of incubation at 37 °C, the cells were centrifuged, washed with PBS and analyzed using NovoCyte Flow Cytometer (ACEA Biosciences Inc.).

Assay [2] relates to HuTu-80 cells. As to the kind of experiment: Cell cycle assay (PI, flow cytometry). Conditions: 8 µM. The format is cell-based, human. The procedure: To determine the effect of compound 9 on the cell cycle, HuTu-80 cells were seeded in 6-well plates at a density of 5 × 10^5 cells/well for 24 h. After incubation, cells were treated with compound 9 at 8 µM for 6, 18 or 24 h. Thereafter, cells were collected by trypsinization, washed with cold PBS and fixed in 70% ice-cold ethanol for 30 min at 4 °C. Fixed cells were pelleted, stained with PI (1 mg/mL) for 15 min at 37 °C in the dark and analyzed using NovoCyte Flow Cytometer (ACEA Biosciences Inc.). Ten thousand events were recorded for each sample.
(In general: Flow cytometry measures light scatter and fluorescence of single cells or particles in a stream.)

Molecules are shown by their SMILES.

`COC(=O)CC[C@@H](C)[C@H]1CC[C@H]2[C@@H]3CC[C@@H]4CC(O)(CNCCCO)CC[C@]4(C)[C@H]3CC(=O)[C@]12C` (stereo partly drawn) [Compound 9, Methyl 3-hydroxy-3-((3-hydroxypropylamino)methyl)-12-oxo-5β-cholan-24-oate]: the “cells with collapsed membrane potential (Low MMP)” value in the assay with HuTu-80 cells [1] (6 h) worked out at 38.2%; in the assay on HuTu-80 cells [1] (18 h) it was 68.6%; in the assay with HuTu-80 cells [1] (24 h), 78.8%. Also, the subG1 cell population in the assay with HuTu-80 cells [2] (6 h) is reported as 7.4%; in the assay on HuTu-80 cells [2] (18 h), 30.0%; with HuTu-80 cells [2] (24 h), 41.1%.
